# Active and inactive are the calls of the source. No cut-off for these calls is given here.
# Assays:
# [1] = Toxicity in 2 dpf zebra fish assessed as bradycardia at 25 ug/ml after 3 days relative to control; design: species or system Danio rerio; conditions: zebrafish, 72 h, at 25 µg/mL, time 3 day
# [2] = Metal chelating activity assessed as Cu2+-compound complex formation in water at 37.5 uM by UV-Visible spectra analysis
# [3] = Metal chelating activity assessed as Al3+-compound complex formation in water buffer at pH 7.4 at 37.5 uM by UV-Visible spectra analysis
# [4] = system: U-87MG ATCC; experiment: Induction of autophagy in human U87 cells stably transfected GFP-LC3 assessed as increase in GFP-LC3 puncta formation at 10 uM after 24 hrs by fluorescence microscopic method; format: functional, cell-based
# [5] = biological target: T1, Acetylcholinesterase (Homo sapiens, UniProt P22303); experiment: Reversible inhibition of human AChE assessed as residual activity at 0.1 times of IC50 concentration after 120 mins relative to control
# T1 sequence (P22303 whole entry, the tested form may be a part): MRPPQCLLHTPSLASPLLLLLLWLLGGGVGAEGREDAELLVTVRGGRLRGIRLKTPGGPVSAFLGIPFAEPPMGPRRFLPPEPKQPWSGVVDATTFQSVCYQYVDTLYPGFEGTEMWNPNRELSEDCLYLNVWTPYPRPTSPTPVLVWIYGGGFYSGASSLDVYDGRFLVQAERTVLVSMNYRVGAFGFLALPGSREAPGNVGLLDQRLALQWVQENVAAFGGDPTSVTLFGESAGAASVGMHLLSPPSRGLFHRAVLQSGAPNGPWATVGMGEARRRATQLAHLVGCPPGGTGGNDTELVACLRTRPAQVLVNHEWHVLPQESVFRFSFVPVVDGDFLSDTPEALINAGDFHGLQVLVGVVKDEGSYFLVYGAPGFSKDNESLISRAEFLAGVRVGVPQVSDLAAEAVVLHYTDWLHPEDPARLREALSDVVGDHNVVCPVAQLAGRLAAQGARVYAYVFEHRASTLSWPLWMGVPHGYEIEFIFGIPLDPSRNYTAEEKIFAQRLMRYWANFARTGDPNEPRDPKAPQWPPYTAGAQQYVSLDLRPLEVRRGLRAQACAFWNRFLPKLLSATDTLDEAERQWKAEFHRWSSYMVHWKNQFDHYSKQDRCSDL
# [6] = organism: Homo sapiens; experiment: Binding affinity to amyloid beta (1 to 42 residues) (unknown origin) assessed as dissociation rate constant by biolayer interferometry analysis
# [7] = biological target: Cholinesterase (Equus caballus, UniProt P81908); experiment: Inhibition of equine serum BChE by Ellman's method; format: cell-free
# Chain of Cholinesterase (Equus caballus, UniProt P81908) (P81908 whole entry): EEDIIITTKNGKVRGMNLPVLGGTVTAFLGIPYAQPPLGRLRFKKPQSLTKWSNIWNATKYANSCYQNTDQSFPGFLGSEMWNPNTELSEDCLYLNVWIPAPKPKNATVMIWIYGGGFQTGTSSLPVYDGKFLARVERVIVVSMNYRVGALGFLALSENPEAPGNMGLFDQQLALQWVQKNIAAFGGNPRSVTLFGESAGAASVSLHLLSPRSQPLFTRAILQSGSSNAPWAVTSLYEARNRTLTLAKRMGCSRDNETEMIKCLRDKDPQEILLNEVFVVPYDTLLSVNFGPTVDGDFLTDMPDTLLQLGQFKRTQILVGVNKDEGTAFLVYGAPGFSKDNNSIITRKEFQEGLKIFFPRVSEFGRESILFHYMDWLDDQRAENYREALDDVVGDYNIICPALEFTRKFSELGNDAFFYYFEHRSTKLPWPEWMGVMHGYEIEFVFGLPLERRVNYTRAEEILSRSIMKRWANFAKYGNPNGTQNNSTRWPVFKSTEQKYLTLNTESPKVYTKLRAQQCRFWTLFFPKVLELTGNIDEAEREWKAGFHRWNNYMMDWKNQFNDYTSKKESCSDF
# [8] = Toxicity in 3 dpf zebra fish assessed as mortality at 100 ug/ml (reference value: 0%); design: species or system Danio rerio; conditions: zebrafish, at 100 µg/mL, read-out: Activity
# [9] = Toxicity in 2 dpf zebra fish assessed as degenerating muscle within the somites at 25 ug/ml after 3 days relative to control; design: species or system Danio rerio; conditions: zebrafish, 72 h, at 25 µg/mL, time 3 day
# [10] = Metal chelating activity assessed as Fe2+-compound complex formation in methanol at 37.5 uM by UV-Visible spectra analysis
# [11] = Toxicity in 2 dpf zebra fish assessed as small brain at 25 ug/ml after 3 days relative to control; format: tissue-based, Danio rerio; conditions: zebrafish, 72 h, at 25 µg/mL, time 3 day
# [12] = Toxicity in 3 dpf zebra fish assessed as mortality at 12.5 ug/ml (reference value: 0%); design: species or system Danio rerio; conditions: zebrafish, at 12.5 µg/mL, read-out: Activity
# [13] = organism: Danio rerio; experiment: Antialzheimer activity in Alcl3-induced zebra fish AD model assessed as increase dyskinesia recovery rate at 0.09 ug/ml relative to control; format: functional; conditions: dose 0.09 µg/ml
# [14] = Toxicity in 2 dpf zebra fish assessed as slow blood flow at 25 ug/ml after 3 days relative to control; format: tissue-based, Danio rerio; conditions: zebrafish, 72 h, at 25 µg/mL, time 3 day
# [15] = Toxicity in 2 dpf zebra fish assessed as short or misshapen jaw at 25 ug/ml after 3 days relative to control; design: species or system Danio rerio; conditions: zebrafish, 72 h, at 25 µg/mL, time 3 day
# [16] = biological target: T1, Acetylcholinesterase; experiment: Mixed type inhibition of human AChE using acetylthiocholine as substrate by Line-weaver Burk plot analysis
# [17] = organism: Danio rerio; experiment: Antialzheimer activity in Alcl3-induced zebra fish AD model assessed as increase in motility at 0.26 ug/ml relative to control; format: functional; conditions: dose 0.26 µg/ml
# [18] = system: Mus musculus; experiment: Antialzheimer activity in scopolamine-induced Kunming mouse model of memory impairment assessed as uniquely mapped in brain hippocampus at 5 mg/kg , po by illumina sequencing method (reference value: 94.54%); format: functional
# [19] = Antioxidant activity assessed as trolox equivalent of AAPH radical scavenging activity measured every min for 4 hrs by ORAC-FL assay relative to trolox; format: functional
# [20] = biological target: T2, Cholinesterase (Homo sapiens, UniProt P06276); experiment: Inhibition of human BChE assessed as residual activity at IC50 concentration relative to control
# T2 sequence (P06276 whole entry): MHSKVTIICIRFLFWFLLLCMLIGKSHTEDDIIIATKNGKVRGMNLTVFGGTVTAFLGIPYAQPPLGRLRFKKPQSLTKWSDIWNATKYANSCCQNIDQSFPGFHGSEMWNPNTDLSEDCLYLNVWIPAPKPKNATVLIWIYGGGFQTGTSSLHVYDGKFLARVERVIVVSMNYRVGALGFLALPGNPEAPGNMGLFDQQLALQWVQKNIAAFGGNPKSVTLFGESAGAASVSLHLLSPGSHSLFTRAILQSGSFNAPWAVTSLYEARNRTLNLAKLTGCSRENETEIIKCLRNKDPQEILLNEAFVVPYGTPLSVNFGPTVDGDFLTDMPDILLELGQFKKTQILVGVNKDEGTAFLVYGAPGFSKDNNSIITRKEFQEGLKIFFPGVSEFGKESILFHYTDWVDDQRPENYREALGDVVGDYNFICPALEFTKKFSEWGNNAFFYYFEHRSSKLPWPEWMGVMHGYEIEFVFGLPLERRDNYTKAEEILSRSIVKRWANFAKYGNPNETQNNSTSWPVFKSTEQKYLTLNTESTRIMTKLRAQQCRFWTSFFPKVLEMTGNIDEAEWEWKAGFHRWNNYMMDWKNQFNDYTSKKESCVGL
# [21] = organism: Danio rerio; experiment: Antialzheimer activity in Alcl3-induced zebra fish AD model assessed as increase in motility at 0.09 ug/ml relative to control; format: functional; conditions: dose 0.09 µg/ml
# [22] = Metal chelating activity assessed as Cu2+-compound complex formation in PBS buffer at pH 7.4 at 37.5 uM by UV-Visible spectra analysis
# [23] = Toxicity in 2 dpf zebra fish assessed as edema in kidney at 25 ug/ml after 3 days relative to control; design: species or system Danio rerio; conditions: zebrafish, 72 h, at 25 µg/mL, time 3 day
# [24] = biological target: T1, Acetylcholinesterase; experiment: Inhibition of AChE in human erythrocytes by Ellman's method; format: cell-based, Erythrocyte
# [25] = Toxicity in 2 dpf zebra fish assessed as absent blood flow at 25 ug/ml after 3 days relative to control; format: tissue-based, Danio rerio; conditions: zebrafish, 72 h, at 25 µg/mL, time 3 day
# [26] = system: Mus musculus; experiment: Antialzheimer activity in scopolamine-induced Kunming mouse model of memory impairment assessed as total mapped in brain hippocampus at 5 mg/kg , po by illumina sequencing method (reference value: 97.13%); format: functional
# [27] = Toxicity in 3 dpf zebra fish assessed as mortality at 50 ug/ml (reference value: 0%); design: species or system Danio rerio; conditions: zebrafish, at 50 µg/mL, read-out: Activity
# [28] = system: HT-22; experiment: Activation of ubiquitin-proteasome system in mouse HT-22 cells expressing pEGFP-N1-APP assessed as increase in APP degradation by measuring reduction in GFP level at 2.5 to 20 uM after 24 hrs by fluorescence microscopic method; format: cell-based; conditions: filed as activator, dose 2.5-20 µM
# [29] = biological target: T2, Cholinesterase; experiment: Inhibition of human serum BChE by Ellman's method; format: cell-free
# [30] = biological target: T2, Cholinesterase; experiment: Reversible inhibition of human BChE assessed as residual activity at IC50 concentration relative to control
# [31] = system: Mus musculus; experiment: Antialzheimer activity in scopolamine-induced Kunming mouse model of memory impairment assessed as total reads in brain hippocampus at 5 mg/kg , po by illumina sequencing method (reference value: 100%); format: functional
# [32] = Inhibition of Cu2+-induced amyloid beta (unknown origin) aggregation after 24 hrs by TEM analysis
# [33] = organism: Danio rerio; experiment: Antialzheimer activity in Alcl3-induced zebra fish AD model assessed as increase dyskinesia recovery rate at 0.78 ug/ml relative to control; format: functional; conditions: dose 0.78 µg/ml
# [34] = Toxicity in 3 dpf zebra fish assessed as blood flow retardation at 1.56 ug/ml; format: tissue-based, Danio rerio; conditions: zebrafish, dose 1.56 µg/ml
# [35] = Toxicity in 2 dpf zebra fish assessed as dark brown liver at 25 ug/ml after 3 days relative to control; design: species or system Danio rerio; conditions: zebrafish, 72 h, at 25 µg/mL, time 3 day
# [36] = system: Mus musculus; experiment: Antialzheimer activity in scopolamine-induced Kunming mouse model of memory impairment assessed as latency time at 20 mg/kg , po by step-down passive avoidance test (reference value: 125.65 sec); format: functional
# [37] = Metal chelating activity assessed as Zn2+-compound complex formation in water at 37.5 uM by UV-Visible spectra analysis
# [38] = organism: Danio rerio; experiment: Antialzheimer activity in Alcl3-induced zebra fish AD model assessed as increase dyskinesia recovery rate at 0.26 ug/ml relative to control; format: functional; conditions: dose 0.26 µg/ml
# [39] = Disaggregation of Cu2+ induced amyloid beta (1 to 42 residues) (unknown origin) aggregation at 25 uM by thioflavin-T fluorescence method relative to control
# [40] = Toxicity in 2 dpf zebra fish at 25 ug/ml after 3 days; design: species or system Danio rerio; conditions: zebrafish, 72 h; dose 25 µg/ml, time 3 day
# [41] = system: Mus musculus; experiment: Antialzheimer activity in scopolamine-induced Kunming mouse model of memory impairment assessed as GC bases ratio (QC data) in brain hippocampus at 5 mg/kg , po by illumina sequencing method (reference value: 53.64%); format: functional
# [42] = Toxicity in 2 dpf zebra fish assessed as misshapen brain at 25 ug/ml after 3 days relative to control; format: tissue-based, Danio rerio; conditions: zebrafish, 72 h, at 25 µg/mL, time 3 day
structure (smiles),measurement,setting,value
CCN(CCCCOc1ccc(-c2cc(=O)c3c(O)cc(OCCCCN(CC)Cc4ccccc4)cc3o2)cc1)Cc1ccccc1,Activity,[1],66.7%
same,Activity,[2],inactive
same,Activity,[3],inactive
same,Activity,[4],Active
same,Activity,[5],86.6%
same,Kdiss,[6],2.56 10^-2/s
same,IC50,[7],9.6 µM
same,mortality at 100 ug/ml,[8],100%
same,Activity,[9],33.3%
same,Activity,[10],Active
same,Activity,[11],50%
same,mortality at 12.5 ug/ml,[12],100%
same,Activity,[13],67%
same,Activity,[14],46.7%
same,Activity,[15],56.7%
same,Ki,[16],0.394 µM
same,Activity,[17],81%
same,Activity,[18],94.34%
same,fold change (FC),[19],1.2
same,Activity,[20],49.7%
same,Activity,[21],72%
same,Activity,[22],Active
same,Activity,[23],66.7%
same,IC50,[24],0.36 µM
same,Activity,[25],53.3%
same,Activity,[26],97.39%
same,mortality at 50 ug/ml,[27],100%
same,Activity,[28],Active
same,IC50,[29],15.3 µM
same,Activity,[30],42.3%
same,Activity,[31],100%
same,inhibition,[32],Active
same,Activity,[33],87%
same,Activity,[34],Toxic
same,Activity,[35],100%
same,Time,[36],245.98 s
same,Activity,[37],inactive
same,Activity,[38],80%
same,Activity,[39],81.3%
same,Activity,[40],Non-Toxic
same,Activity,[41],59.05%
same,Activity,[42],76.7%

# — ChEMBL document CHEMBL4765274, “The development of advanced structural framework as multi-target-directed ligands for the treatment of Alzheimer's disease” (Eur J Med Chem, 2020)
